Test results published in patent US9334256B2, “Agents and methods for treating ischemic and other diseases” (NoNO INC., priority 2011, dated 2016).

Key:
TRPM7 [1] = target: T1, TRPM7 (Mus musculus, UniProt Q923J1); assay: PI uptake cell death assay in TRPM7-expressing HEK-293 cells (type of assay from Example 1); format: cell-based, murine
T1 construct: expressed in transfected cells; host or cells: HEK-293 tSA (HEK-293T) cells, transient transfection with Lipofectamine 2000
Source text: The TRPM7 channel provides a pathway for mono- and divalent cations into the cell, and is unique in that it contains a functional C-terminal α-kinase domain. […] The induction of chemical anoxia in host cells such as recombinant HEK293 cells can be used to activate TRPM7. This activation is detectable with the use measurements of cellular calcium accumulation. This is achievable with the use of a fluorescent calcium indicator. Alternatively, this activation can also be measured using radiolabelled Ca2+ (^45Ca^2+) as described previously by Sattler et al. (Sattler et al., 1998) and Aarts et al. (Aarts et al., 2003).
Hoechst 33342 was purchased as a 10 mg/mL solution in water (Molecular Probes Inc., Eugene, Oreg.). Propidium iodide (PI) was purchased as a powder and prepared by dissolving in PBS at 1 mg/mL. PI solutions were stored at 4° C. until use. Hoechst and PI were added directly to cell culture to 5 μg/mL and 10 μg/mL respectively. Cells were incubated at room temperature or at 37° C. for 10 minutes to allow for adequate uptake, and fluorescence observed using a NIKON Eclipse TE2000 inverted microscope and TE-FM Epi-Fluorescence attachment (Nikon Canada).
Untransfected cells or cells transfected with the TRPM7/pTracer or ΔPDZ/pTracer construct were plated onto 24-well plates, 24-hours post-transfection. Untransfected cells were plated at 0.75×10^6 cells/well and transfected cells at 1×10^6 cells/well. The plates were coated with poly-D-lysine to strengthen cell adhesion and to minimize cell loss during washes. Cells were loaded by incubation with 5 μM fluo-3 AM and 0.02% pluronic in HBSS at 37° C. for 30 minutes. Following loading, cells were washed with an aglycaemic HBSS containing, in mM: 20 N-methyl-D-glucamine (NMDG), 121 NaCl, 5 KCl, 10 HEPES acid, 10 HEPES-Na salt, 3 NaHCO3, 1 Na-pyruvate, and 1.8 CaCl2, pH adjusted to 7.4 with HCl. Calcium uptake, as assessed by fluo-3 fluorescence, was measured in response to 0, 5, 10, 15, 20, or 25 mM sodium cyanide (NaCN; Mallinckrodt Baker Inc., Phillipsburg, N.J.) dissolved in aglycaemic HBSS. A 250 mM NaCN stock was prepared in water and stored at room temperature for up to 2 weeks. Measurements of fluo-3 fluorescence were taken over a 2 hour period at 10 minutes intervals at room temperature (22-25° C.). Calcium uptake assays were performed 48 hours post-transfection.
Cell death, as assessed by PI uptake, was examined at the end of the 2 hour calcium uptake assay. Cells were stained with 10 μg/mL PI and PI fluorescence measured using the Fluoroskan microplate reader (λ excitation=590 nm, λ emission=630 nm) and accompanying Ascent software (Thermo Electron Corp.). To obtain a reading of maximal fluorescence (Fmax), 0.5% Triton X-100 was added to each well and allowed to incubate for 20 minutes. Cell death assays were performed 48 hours post-transfection.
Data was entered into Excel (Microsoft, Seattle, Wash.) or SigmaPlot (SPSS Inc., Chicago, Ill.) for analysis. Pooled data are presented as the mean of at least 3 separate experiments±sem. Calcium uptake is expressed as a fraction of baseline uptake: ΔFt=(Ft−Fo)/Fo where Ft is the fluorescence at time t, and Fo is the fluorescence at baseline. Cell death is expressed as a percentage of total cell death: cell death (%)=Ft/Fmax×100 where Ft is the fluorescence at time t and Fmax is the maximal fluorescence obtained by permeabilization with Triton X-100. Concentration-response curves were fit by nonlinear regression with a 4 parameter logistic curve represented by the following equation: y=min+{(max−min)/[1+(x/EC50)n]} where y is the response at concentration x, min is the minimal response, max is the maximal response, EC50 is the concentration required for half-maximal response, and n is the Hill slope. Statistical analysis of data was carried out with a two-tailed Student's t test, or a one-way analysis of variance (ANOVA) followed by post hoc pairwise multiple comparisons testing using the Holm-Sidak method, where appropriate. […]

TRPM7 ion channel = target: T2, TRPM7 ion channel (Mus musculus, UniProt Q923J1); assay: Whole-cell patch clamp of TRPM7 currents in HEK293 cells; format: cell-based; details: value shown = concentration at which the compound significantly inhibits the ion channel
T2 construct: expressed in transfected cells; host or cells: TRPM7-tet-on HEK293 cells
Method: To further understand the structure function relationships between the TRPM7 inhibitors identified in the TRPM7-dependent HEK death assay, the activity of a subset of these inhibitors described herein were tested for their ability to inhibit TRPM7 currents in cell systems. Whole-cell patch clamp recordings were used essentially as described to test the TRPM7 inhibitors in HEK293 cells, H9c2 cardiomyocytes and cultured neurons. […] Those that provide >10% inhibition of TRPM7 channel activity in the HEK293 cell system were labeled with the concentration tested (generally 5 uM). Thus, the compounds in this table marked with such a value are able to block the activity gof the TRPM7 ion channel. FIGS. 2A-C provide an example of this for the TRPM7 inhibitor 399 (Structure 9). […] Numbers in brackets indicate the number of independent tests, and the bars represent the SEM.
Whole-cell currents were recorded using an Axopatch 1D or MultiClamp 700B amplifier and were digitized at 10 kHz and low-pass filtered at 2 kHz, at room temperature. pClamp10 software was used for data acquisition and analysis. Patch electrodes were pulled from Borosilicate glass and fire polished to a resistance of 2-4 MΩ. All drugs were administrated directly to cell bodies under recording through the fast exchange perfusion system.
The intracellular solution (ICS) contains (mM) 145 Cs-methanesulfonate, 8 NaCl, l MgCl2, 4.1 CaCl2, 10 EGTA, and 10 HEPES, 5 ATP, pH at 7.4, with 300-305 mOsm. The extracellular solution (ECS) contains (mM) 140 NaCl, 5 KCl, 2 CaCl2, 20 HEPES, and 10 glucose, pH at 7.4 and with 315-320 mOsm.
Voltage stimuli lasting 250 ms were delivered at 5-s intervals with voltage ramps ranging from −100 to +100 mV. The current values at −80 mV and +80 mV on I-V curve represent the measures of inward and outward current respectively.
(§1) Table X and FIGS. 7-51 show screening data for several additional compounds that are variants of M5, M6 or M21. The synthesis of compounds of Table X and FIGS. 7-51 is shown in Appendices A-C. The compounds shown in FIGS. 7-51 can be related to the appropriate row of Table X by the compound number shown in the figures and in the first column of Table X. The compounds in Table X other than M5, M6 and M21 themselves, are believed to be novel. The Table provides a number identifying the compound, its structurer, molecular weight and its cluster (i.e., whether the compound resembles M5, M6 or M21). The three columns relations to PI uptake describe the results of screening the compounds in the type of assay from Example 1. […] The last two columns show an effect on proliferation of Weri retinoblastoma or HeLa cervical cancer cells. Inhibition of proliferation is a measure of anti-neoplastic activity. […] If no data is shown, no test was performed.

cancer cell lines = assay: Cell proliferation studies, cancer cell lines in general; format: cell-based; details: summary statement
Method: (§2) Cells were grown to 70% confluency, trypsinized, counted, and seeded in 96-well flat-bottom plates at a final concentration of 2.5×10^3-5.0×10^3 cells/well in growth media containing 5% FBS (Day 0). Other well sizes and cell densities were used successfully as well. Cells were allowed to incubate in growth media for 24 hours to allow for maximum adhesion. Treatment with the test agent began on Day 1 and continued for 72 hours either with or without retreatment. At the 72 hour time point, viable cell numbers are quantified by the CellTiter-Glo® cell viability assay as described above, or using standard MTT, SRB or BrDU assays. Experiments were repeated at least twice with the same concentrations to determine growth inhibitory activity. […] In an alternative format, this assay was used to screen potential TRPM7 inhibitory compounds at a fixed concentration, usually 5 or 10 uM. Alternatively, lower or higher concentrations were used. […] Thus, for the compounds in Table 1, all are potential anti-cancer agents. Some, like 399 and 509, are more general and may be effective against a wide range of cancers. Others, like 2785, are more specific and may be effective against a subset of cancers.
(§3) Data Collection—For the cell proliferation studies, data from each experiment was collected and expressed as % Cell Growth using the following calculation: % Cell Growth=(ftest/fvehicle)×100 Where ftest is the luminescent signal of the tested sample, and fvehicle is the luminescence of the vehicle in which the drug is dissolved (or appropriate measure for the other viability/proliferation measures). Dose response graphs and IC50 values were generated using standard software using the following variable slope equation: […]

[2] = tested on: neurons, hepatocytes, cardiomyocytes, retina; assay: Survival after anoxia in cells and tissues; format: cell-based; details: summary statement
TRPM7 [3] = target: TRPM7 (Homo sapiens, UniProt Q96QT4); details: Nadler et al., Jiang et al.; read-out: IC50 for inhibition of TRPM7; cited from earlier work
Weri cells = assay: Cell proliferation assay, Weri retinoblastoma cells; format: cell-based
Method: as §2, §3, §1

[4] = Table X, the lower the number, the more potent in protecting against cell death
[5] = Table X, the lower the number, the more potent
[6] = Table Y, commercially available compounds

T1 sequence (Q923J1 whole entry): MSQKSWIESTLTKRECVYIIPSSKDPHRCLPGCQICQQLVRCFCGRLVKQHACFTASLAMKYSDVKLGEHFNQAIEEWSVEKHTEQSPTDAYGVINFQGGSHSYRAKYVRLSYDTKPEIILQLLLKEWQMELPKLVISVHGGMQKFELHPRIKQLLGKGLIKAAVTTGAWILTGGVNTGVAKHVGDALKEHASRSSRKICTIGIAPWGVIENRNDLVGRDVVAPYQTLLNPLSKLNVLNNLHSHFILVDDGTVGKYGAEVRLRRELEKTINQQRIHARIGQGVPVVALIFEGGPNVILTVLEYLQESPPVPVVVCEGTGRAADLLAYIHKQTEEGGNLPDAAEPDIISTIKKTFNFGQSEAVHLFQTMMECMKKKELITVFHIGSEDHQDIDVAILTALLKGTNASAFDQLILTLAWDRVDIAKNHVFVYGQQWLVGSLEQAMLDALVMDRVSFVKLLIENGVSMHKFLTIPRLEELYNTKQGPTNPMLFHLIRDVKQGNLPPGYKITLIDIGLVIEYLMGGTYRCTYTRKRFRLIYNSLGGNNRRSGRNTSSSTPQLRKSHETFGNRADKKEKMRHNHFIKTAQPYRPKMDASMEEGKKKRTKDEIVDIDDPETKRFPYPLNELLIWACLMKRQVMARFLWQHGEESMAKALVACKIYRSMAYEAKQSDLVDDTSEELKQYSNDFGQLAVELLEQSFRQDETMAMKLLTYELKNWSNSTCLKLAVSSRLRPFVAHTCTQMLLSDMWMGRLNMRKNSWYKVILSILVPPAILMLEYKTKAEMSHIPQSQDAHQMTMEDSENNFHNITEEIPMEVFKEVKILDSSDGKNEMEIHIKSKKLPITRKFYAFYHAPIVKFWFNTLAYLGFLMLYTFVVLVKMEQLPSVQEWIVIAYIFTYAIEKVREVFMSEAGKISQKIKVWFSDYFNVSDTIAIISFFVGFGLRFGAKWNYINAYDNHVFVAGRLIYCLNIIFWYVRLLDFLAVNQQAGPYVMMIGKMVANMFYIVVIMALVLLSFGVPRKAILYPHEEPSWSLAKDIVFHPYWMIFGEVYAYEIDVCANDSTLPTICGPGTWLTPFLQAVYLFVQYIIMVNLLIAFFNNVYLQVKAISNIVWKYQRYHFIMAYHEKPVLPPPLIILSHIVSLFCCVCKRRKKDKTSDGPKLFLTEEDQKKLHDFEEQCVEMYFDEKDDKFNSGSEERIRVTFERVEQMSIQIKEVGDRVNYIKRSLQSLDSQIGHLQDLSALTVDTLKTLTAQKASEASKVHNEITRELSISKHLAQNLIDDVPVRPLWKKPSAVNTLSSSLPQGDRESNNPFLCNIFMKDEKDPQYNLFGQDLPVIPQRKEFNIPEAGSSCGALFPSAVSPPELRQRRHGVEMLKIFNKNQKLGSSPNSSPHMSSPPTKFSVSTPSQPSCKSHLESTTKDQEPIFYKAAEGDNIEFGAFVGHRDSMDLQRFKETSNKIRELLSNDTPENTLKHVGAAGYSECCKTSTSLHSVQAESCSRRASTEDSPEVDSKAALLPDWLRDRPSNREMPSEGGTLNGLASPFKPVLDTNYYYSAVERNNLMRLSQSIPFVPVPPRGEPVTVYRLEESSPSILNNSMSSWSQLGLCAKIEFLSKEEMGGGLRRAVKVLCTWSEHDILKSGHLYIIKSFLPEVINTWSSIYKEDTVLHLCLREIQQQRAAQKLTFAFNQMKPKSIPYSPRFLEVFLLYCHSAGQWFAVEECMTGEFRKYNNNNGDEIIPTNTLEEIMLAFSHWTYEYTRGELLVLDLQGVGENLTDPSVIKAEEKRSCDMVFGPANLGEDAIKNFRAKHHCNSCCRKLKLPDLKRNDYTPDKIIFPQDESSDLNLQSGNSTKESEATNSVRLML
T2 sequence (Q923J1 whole entry): as above
TRPM7 (Homo sapiens, UniProt Q96QT4), sequence (Q96QT4 whole entry, species assumed): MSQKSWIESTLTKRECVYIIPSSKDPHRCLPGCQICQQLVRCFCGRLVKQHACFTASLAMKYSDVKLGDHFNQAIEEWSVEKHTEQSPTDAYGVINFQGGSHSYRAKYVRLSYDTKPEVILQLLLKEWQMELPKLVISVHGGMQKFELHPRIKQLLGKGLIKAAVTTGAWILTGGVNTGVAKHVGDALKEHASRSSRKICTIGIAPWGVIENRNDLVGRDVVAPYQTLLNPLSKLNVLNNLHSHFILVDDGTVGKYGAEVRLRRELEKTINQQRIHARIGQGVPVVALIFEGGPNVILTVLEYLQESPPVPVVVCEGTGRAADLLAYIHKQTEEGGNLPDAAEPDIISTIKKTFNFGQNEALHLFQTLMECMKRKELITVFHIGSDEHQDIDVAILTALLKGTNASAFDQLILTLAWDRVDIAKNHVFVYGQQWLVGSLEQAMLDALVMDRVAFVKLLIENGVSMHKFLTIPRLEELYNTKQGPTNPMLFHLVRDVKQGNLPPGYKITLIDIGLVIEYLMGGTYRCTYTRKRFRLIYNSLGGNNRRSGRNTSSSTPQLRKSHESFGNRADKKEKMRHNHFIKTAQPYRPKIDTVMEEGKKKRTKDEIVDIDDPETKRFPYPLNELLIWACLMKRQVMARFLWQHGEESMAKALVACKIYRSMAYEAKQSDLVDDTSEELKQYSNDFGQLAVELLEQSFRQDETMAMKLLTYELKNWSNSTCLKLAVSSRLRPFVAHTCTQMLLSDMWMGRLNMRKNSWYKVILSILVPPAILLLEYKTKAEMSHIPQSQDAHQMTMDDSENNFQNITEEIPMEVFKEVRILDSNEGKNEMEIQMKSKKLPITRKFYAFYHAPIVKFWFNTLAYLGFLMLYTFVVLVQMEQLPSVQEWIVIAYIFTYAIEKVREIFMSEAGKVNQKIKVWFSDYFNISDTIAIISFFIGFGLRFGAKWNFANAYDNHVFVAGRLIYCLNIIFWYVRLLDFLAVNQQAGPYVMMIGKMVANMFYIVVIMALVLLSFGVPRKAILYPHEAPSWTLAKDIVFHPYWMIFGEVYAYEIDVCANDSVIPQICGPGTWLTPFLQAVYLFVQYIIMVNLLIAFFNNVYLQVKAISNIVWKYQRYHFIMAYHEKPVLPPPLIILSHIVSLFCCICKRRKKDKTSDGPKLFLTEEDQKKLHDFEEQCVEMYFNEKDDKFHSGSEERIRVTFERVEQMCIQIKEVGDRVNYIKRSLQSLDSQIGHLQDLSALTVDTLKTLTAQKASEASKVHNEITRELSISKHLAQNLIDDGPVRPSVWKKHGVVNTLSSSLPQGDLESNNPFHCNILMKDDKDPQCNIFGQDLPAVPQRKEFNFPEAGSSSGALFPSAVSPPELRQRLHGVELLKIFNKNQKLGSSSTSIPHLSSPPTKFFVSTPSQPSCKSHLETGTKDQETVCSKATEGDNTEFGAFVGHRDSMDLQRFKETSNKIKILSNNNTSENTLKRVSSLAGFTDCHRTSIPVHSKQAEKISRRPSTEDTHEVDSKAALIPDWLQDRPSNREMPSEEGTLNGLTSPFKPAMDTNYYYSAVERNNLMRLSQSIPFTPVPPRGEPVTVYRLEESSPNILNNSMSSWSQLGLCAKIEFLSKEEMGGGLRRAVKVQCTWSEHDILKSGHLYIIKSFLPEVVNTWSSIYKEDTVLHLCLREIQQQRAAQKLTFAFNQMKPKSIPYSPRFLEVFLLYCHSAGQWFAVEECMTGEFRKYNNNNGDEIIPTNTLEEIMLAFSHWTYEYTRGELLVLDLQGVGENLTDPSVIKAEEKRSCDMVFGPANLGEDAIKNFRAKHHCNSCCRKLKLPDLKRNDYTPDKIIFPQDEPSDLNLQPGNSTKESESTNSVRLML

COc1cccc2c1CCNC2c1sc2ccccc2c1Cl (stereo not drawn) [Compound 121]
Normalized ratio of PI uptake (5 μM) (TRPM7 [1]; [4]): 0.053 | Normalized ratio of PI uptake (10 μM) (TRPM7 [1]; [5]): 0.036 | IC50 (TRPM7 [1]; Table X): 1.4 µM | TRPM7 current (TRPM7 ion channel): 5 μM (Those that provide >10% inhibition of TRPM7 channel activity in the HEK293 cell system were labeled with the concentration tested (generally 5 uM))

Fc1cccc2c1CCNC2c1sc2ccccc2c1Cl (stereo not drawn) [Compound 123]
Normalized ratio of PI uptake (5 μM) (TRPM7 [1]; [4]): 0.356 | Normalized ratio of PI uptake (10 μM) (TRPM7 [1]; [5]): 0.128 | IC50 (TRPM7 [1]; Table X): 4.18 µM | TRPM7 current (TRPM7 ion channel): 5 μM (Those that provide >10% inhibition of TRPM7 channel activity in the HEK293 cell system were labeled with the concentration tested (generally 5 uM))

Cc1c(Cc2ccc(Cl)c(Cl)c2)c(=O)oc2cc(O)cc(O)c12 [Compound 131]
Normalized ratio of PI uptake (5 μM) (TRPM7 [1]; [4]): 0.29 | Normalized ratio of PI uptake (10 μM) (TRPM7 [1]; [5]): 0.03 | IC50 (TRPM7 [1]; Table X): 3.42 µM | TRPM7 current (TRPM7 ion channel): 5 μM (Those that provide >10% inhibition of TRPM7 channel activity in the HEK293 cell system were labeled with the concentration tested (generally 5 uM))

Cc1ccc2c(c1)CCCN2C(=O)c1sc2ccccc2c1Cl [Compound M5]
inhibition of proliferation of cancer cell lines (cancer cell lines): effective in inhibiting proliferation of various cancer cell lines | survival after anoxia [2]: effective in increasing survival after anoxia in neurons, hepatocytes, cardiomyoctes, and retina

COc1cc2c(cc1OC)C(c1sc3ccccc3c1Cl)=NCC2 [Compound M6]
inhibition of proliferation of cancer cell lines (cancer cell lines): effective in inhibiting proliferation of various cancer cell lines | survival after anoxia [2]: effective in increasing survival after anoxia in neurons and cardiomyocytes

[Mg+2] [Mg^2+, magnesium]
IC50 (TRPM7 [3]): ~600 µM

COc1ccccc1C(C)N(C)C(=O)c1cc2ccccc2s1 (stereo not drawn) [T6681713 #6, reference compound]
Normalized ratio of PI uptake (5 μM) (TRPM7 [1]; [6]): 0.328 | Normalized ratio of PI uptake (10 μM) (TRPM7 [1]; [6]): 0.059 | IC50 (TRPM7 [1]; [6]): 5.48 µM | inhibition at 5 µM (Weri cells): 9% | inhibition at 10 µM (Weri cells): 33%

COc1ccc2cc(C(=O)N(C)Cc3ccccc3N3CCCC3)[nH]c2c1 [T6899266 #9, reference compound]
Normalized ratio of PI uptake (5 μM) (TRPM7 [1]; [6]): 0.029 | Normalized ratio of PI uptake (10 μM) (TRPM7 [1]; [6]): 0 | IC50 (TRPM7 [1]; [6]): 2.32 µM | inhibition at 5 µM (Weri cells): 18% | inhibition at 10 µM (Weri cells): 42%
